Here are results for one molecule from paper PMC9106635, “Stimulation of the atypical chemokine receptor 3 (ACKR3) by a small-molecule agonist attenuates fibrosis in a preclinical liver but not lung injury model” (Cellular and Molecular Life Sciences: CMLS, 2022).

One may read the IC50 as the point on the concentration scale where inhibition reaches its midpoint. A higher IC50 goes with lower potency.

A value given as a limit tells only on which side of the number the result lay.

Series [1] relates to bleomycin-induced lung fibrosis in C57BL/6J mice. Nature of the series: Bleomycin-induced lung fibrosis model. Type of series: in vivo, mouse. To be noted: 15 mg/kg/dose SC BID, day 21, vs bleomycin + 23% HPBCD. How it is done: A preclinical mouse model for bleomycin-induced lung fibrosis was performed at the Department of Metabolic Health Research, The Netherlands Organisation for Applied Scientific Research (TNO) (Leiden, The Netherlands). Thirty-eight male C57BL/6J mice were matched on body weight prior to the study and divided into three groups (experimental study design, Supplementary Figure S1b). At day 0, 10–12-week-old mice received a single oropharyngeal administration of bleomycin (0.04U/mouse) (group 2 and 3). Control mice (group 1) received phosphate buffered saline (PBS) instead. At day 0, bleomycin-treated mice received either compound 18a (15 mg/kg/dose, subcutaneous, twice daily, group 3), or its corresponding vehicle control (23% HPBCD, subcutaneous, twice daily, group 2)]. PBS-treated mice received 23% HPBCD throughout the study (subcutaneous, twice daily, group 1). At day 21, mice were sacrificed under isoflurane anesthesia and plasma samples and lung lobes were collected. As a primary endpoint the histology lung fibrosis score (modified Ashcroft score) was used based on a Masson’s Trichrome staining on cross-sections of the left lung lobe. As a secondary endpoint collagen content (hydroxyproline) was analyzed on the medial and accessory lobes by using a chromogenic assay according to the manufacturer’s instructions (QuickZyme Biosciences, Leiden, the Netherlands).

The subject of series [2] is isoproterenol-induced cardiac fibrosis in mice. Also noted: method as in PMID 29627981. To be noted: isoproterenol-induced cardiac injury; cited from earlier work.
On the set-up of series [3]: method as in PMID 29627981. To be noted: mice; cited from earlier work.
Series [4] has as its target hCXCR4 (Homo sapiens, UniProt P61073). Nature of the series: CXCL12^AF647 competition binding, Jurkat cells. The method, then: (§1) Binding affinity to human (h)CXCR4 and human (h)ACKR3 was investigated with a competition binding assay using CXCL12^AF647 (Almac, UK) as the tracer molecule. Jurkat cells (human T lymphocytic cell line, hCXCR4 positive) or U87.CD4.ACKR3 cells (human glioblastoma cell line, hACKR3 positive) were resuspended in assay buffer [Hank’s Balanced Salt Solution (HBSS, Thermo Fisher Scientific), 20 mM HEPES buffer, 0.2% bovine serum albumin (Sigma-Aldrich), pH 7.4] at 3 × 10^5 cells per sample and treated with increasing concentrations of compound at RT for 15 min. A fixed amount of CXCL12^AF647 (2.9 nM and 1.45 nM in case of hCXCR4 and hACKR3, respectively) was added and cells were incubated at RT for 30 min protected from light. Cells were finally fixed in 1% paraformaldehyde in DPBS and the CXCL12^AF647 binding signal [i.e., mean fluorescence intensity (MFI)] was quantified by flow cytometry (FACSCanto™; Becton Dickinson). Data were analyzed with FlowJo® Software. For all samples the background MFI (i.e., autofluorescence of untreated and unlabeled cells) was subtracted. The percentage inhibition for each compound concentration was calculated relative to the positive control (i.e., untreated cells exposed to CXCL12^AF647 only). Four parameter non-linear curve fitting (GraphPad Prism 9.0.2) was used to determine the IC50 value for binding inhibition.

In series [5] the test system is mouse CXCL12 plasma levels. Nature of the series: Mouse CXCL12 plasma determination (Bio-Plex). Type of series: in vivo. The method, then:
CXCL12 plasma levels were determined using Bio-Plex Pro Mouse Chemokine SDF-1a/CXCL12 (Bio-Rad) according to the manufacturer’s protocol. Prior to the assay mouse plasma samples were centrifuged for 15 min at 1000×g at 4 °C to remove any particulates. A four-fold dilution series of mouse CXCL12, blank samples and 1:5 diluted plasma samples were prepared. A 1:1 mixture of magnetic beads (50 µL/well) and sample (50 µL/well) was added to the 96-well assay plate, which was then sealed and incubated (30 min at RT) on a plate shaker at 850 rpm protected from light. After washing three times with wash buffer 25 µL/well detection antibody was added and the plate was again incubated as described above. The plate was again washed three times (100 µL/well wash buffer) followed by the addition of streptavidin-PE (50 µL/well). The plate was sealed and incubated (10 min at RT) at 850 rpm protected from light. Finally, the plate was again washed three times and the magnetic beads were resuspended in fresh assay buffer (152 µL/well). The plate was sealed and shaken for an additional 30 s before being analyzed with the Bioplex 200 System. Data were analyzed with the Bio-Plex Manager Software.

For series [6], the target named is hACKR3 (Homo sapiens, UniProt P25106). Description: CXCL12^AF647 competition binding, U87.CD4.ACKR3 cells. The method, then:
as §1

Series [7] is described as follows: Compound concentration in liver and lung tissue homogenates (LC-MS/MS). Type of series: in vivo, mouse. To be noted: mean ± sem. How it is done:
Pharmacokinetic analysis of plasma samples was performed at GVK BIO Sciences Pvt. Ltd. (Hyderabad, India). The pharmacokinetic properties of compound 18a were determined by subcutaneous administration in male C57BL/6 mice. A 30 mg/kg dose was formulated as a solution in 23% hydroxypropyl-beta-cyclodextrin (HPBCD; w/v) in water. The dose volume was 3 mL/kg. Serial blood samples were collected at 0.5, 1, 2, 4, 6, 8 and 24 h post dosing (n = 3). Plasma concentration of compound 18a was determined by a LC–MS/MS method. Chromatography was performed on a reverse phase column (Kinetex EVO, C18, 50 × 4.6 mm, 5 µ) at a flow rate of 1 mL/minute, using a gradient-elution method. Mobile Phase A was a 10 mM ammonium acetate solution with 0.1% formic acid in water, whereas mobile phase B was a mixture of acetonitrile and methanol (50:50). The gradient started at 5% B ramped up to 95% B over 1 min, held at 95% B for 1.2 min, and then ramped down to 5% B over 0.1 min, and held at 5% B for 1.2 min. The mass spectrometer was operated in positive-ionization mode and Telmisartan was used as internal standard. […] The Cmax, Tmax, AUC and half-life value (t1/2) were determined using standard non-compartmental pharmacokinetic methods. The concentration of compound 18a in liver and lung tissue was determined by LC–MS/MS at Eurofins (Vergeze, France). […] Data are expressed as mean ± sem.

Sequence of hACKR3 (P25106 whole entry): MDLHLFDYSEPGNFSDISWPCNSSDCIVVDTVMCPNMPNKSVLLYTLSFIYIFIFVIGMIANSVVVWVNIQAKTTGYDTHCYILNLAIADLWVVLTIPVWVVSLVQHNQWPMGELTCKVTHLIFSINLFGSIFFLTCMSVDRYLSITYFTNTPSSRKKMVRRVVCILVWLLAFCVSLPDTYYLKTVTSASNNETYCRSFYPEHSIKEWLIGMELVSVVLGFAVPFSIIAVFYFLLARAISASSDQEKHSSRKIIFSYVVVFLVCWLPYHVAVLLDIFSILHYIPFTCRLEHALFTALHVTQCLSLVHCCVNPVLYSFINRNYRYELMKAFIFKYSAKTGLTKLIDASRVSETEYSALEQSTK
Sequence of hCXCR4 (P61073 whole entry): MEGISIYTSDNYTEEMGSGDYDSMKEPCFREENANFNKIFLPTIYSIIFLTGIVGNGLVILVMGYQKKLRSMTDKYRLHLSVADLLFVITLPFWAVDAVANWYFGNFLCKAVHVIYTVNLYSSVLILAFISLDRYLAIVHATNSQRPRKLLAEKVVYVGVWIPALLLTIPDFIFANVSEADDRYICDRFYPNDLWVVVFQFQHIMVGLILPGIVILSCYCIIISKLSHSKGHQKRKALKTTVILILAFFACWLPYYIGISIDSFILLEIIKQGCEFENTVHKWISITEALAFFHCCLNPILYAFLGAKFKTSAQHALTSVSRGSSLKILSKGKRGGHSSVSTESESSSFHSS

On to `CCc1ccn2ccnc2c1N1CCCN(C(CC(N)=O)C2CCN(C(=O)C3CC4CCC3O4)CC2)CC1` (centres unmarked) [compound 18a], for which the “development of lung fibrosis (modified Ashcroft score, hydroxyproline)” value in series [1] is on record as “did not counteract the development of fibrosis”. In addition, in series [2], the cardiac fibrosis entry is listed as “protect mice from cardiac fibrosis”. In addition, the oral bioavailability result in series [3] is listed as “not orally bioavailable”. For the same molecule, the IC50 in series [4] was more than 4000 nM; in series [6] (hACKR3, mean ± SD of three independent experiments), 20.5 ± 6.34 nM. For the same molecule, the “increase of plasma CXCL12-levels” value in series [5] (liver fibrosis model, day 7, 15 mg/kg/dose SC BID) was “~ threefold”. The “plasma CXCL12 levels” value was “led to increased CXCL12 levels” in series [5] (liver fibrosis model, day 28, 15 mg/kg/dose SC BID) and “increased mouse CXCL12 plasma levels” in series [5] (lung fibrosis model, day 21, 15 mg/kg/dose SC BID, vs vehicle (23% HPBCD)). Besides, the “higher hACKR3 binding affinity compared to compound 18b” value in series [6] (ratio of IC50 values) is recorded as “five-fold”. Also, the “concentration in lung tissue” value in series [7] (day 21, 2 h after last subcutaneous dose (15 mg/kg BID), n=4) is 1703 ± 54 ng/g tissue. In series [7] (day 28, 2 h after last subcutaneous dose (15 mg/kg BID), n=3), the “concentration in liver tissue” value was determined as 2528 ± 511 ng/g tissue.
